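Values below derive from 48-hour exposures of cells grown in 96-well plates, with endpoints linearly interpolated between the two concentrations bracketing the appropriate inhibition level. GI50 is the concentration that inhibits growth by half. TGI: concentration producing complete growth inhibition.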 Some results are limits rather than exact numbers.

Among the test systems are MALME-3M melanoma; ACHN renal; NCI-H23 lung; M14 melanoma; SNB-75 CNS; NCI-H522 lung; RPMI-8226 leukemia; CCRF-CEM leukemia.
What all share (experiment): NCI anticancer screen, dose series, 48 h

Turning to `COc1cc2c3c(n(C)c(=O)c2cc1OC)-c1cc2c(cc1/C3=C\C(N)CN)OCO2` (stereo not given), the GI50 with MALME-3M melanoma is 0.284 µM; in the assay with ACHN renal, 0.73 µM; with NCI-H23 lung, 1.84 µM; in the assay with M14 melanoma, 2.23 µM; in the assay on SNB-75 CNS, 3.6 µM; in the assay with NCI-H522 lung, 0.394 µM. In addition, the GI50 with RPMI-8226 leukemia was 6.43 µM; in the assay with CCRF-CEM leukemia, 0.333 µM. For the same molecule, the TGI in the assay with MALME-3M melanoma was 4.04 µM; in the assay with ACHN renal, 2.82 µM; in the assay on NCI-H23 lung, 5.58 µM; in the assay with M14 melanoma, 7.26 µM; with SNB-75 CNS, more than 31.3 µM; in the assay with RPMI-8226 leukemia, 26.1 µM. Also, in the assay with CCRF-CEM leukemia, the TGI amounted to 3.63 µM.
Consider `O=C(c1cccnc1)c1cc(-c2ccccn2)c(=O)n2ccccc12`, for which the GI50 in the assay on MALME-3M melanoma, with ACHN renal, with NCI-H23 lung, in the assay with M14 melanoma, with SNB-75 CNS and with NCI-H522 lung was more than 100 µM each time. For the same molecule, the GI50 with RPMI-8226 leukemia and in the assay on CCRF-CEM leukemia was more than 100 µM in each case. Moreover, the TGI in the assay with MALME-3M melanoma, in the assay on ACHN renal, with NCI-H23 lung, with M14 melanoma, in the assay on SNB-75 CNS and with NCI-H522 lung was more than 100 µM each time. For the same molecule, the TGI with RPMI-8226 leukemia and in the assay with CCRF-CEM leukemia was more than 100 µM each time.
Regarding `CC(C)N1C(NNC(=O)c2cnccn2)=NS(=O)(=O)c2ccccc21`, the GI50 in the assay on MALME-3M melanoma is more than 100 µM; in the assay with ACHN renal it was more than 100 µM; in the assay with NCI-H23 lung, more than 100 µM; with M14 melanoma, more than 100 µM; in the assay with SNB-75 CNS, 94.5 µM; in the assay on NCI-H522 lung it was more than 100 µM. Moreover, the results for the GI50 in the assay on RPMI-8226 leukemia and with CCRF-CEM leukemia were more than 100 µM and 1.33 µM, respectively. Besides, the TGI in the assay with MALME-3M melanoma, in the assay with ACHN renal, in the assay on NCI-H23 lung, with M14 melanoma, with SNB-75 CNS and with NCI-H522 lung was more than 100 µM in each case. The TGI in the assay with RPMI-8226 leukemia was more than 100 µM; in the assay with CCRF-CEM leukemia, 6.3 µM.
`FC(F)(F)c1ccc(-c2cnc(Cl)nc2NCc2cc(C(F)(F)F)cc(C(F)(F)F)c2)cc1`: the GI50 is 2.84 µM in the assay on MALME-3M melanoma; 3.28 µM in the assay on ACHN renal; 3.28 µM with NCI-H23 lung; 4.44 µM in the assay on M14 melanoma; 1.7 µM with SNB-75 CNS; 2.69 µM in the assay on NCI-H522 lung. The results for the GI50 in the assay with RPMI-8226 leukemia and with CCRF-CEM leukemia were 3.08 µM and 3.82 µM, respectively. Also, the TGI in the assay with MALME-3M melanoma is 7.56 µM; in the assay with ACHN renal, more than 100 µM; in the assay on NCI-H23 lung, more than 100 µM; in the assay on M14 melanoma, more than 100 µM; in the assay on SNB-75 CNS, more than 100 µM; in the assay with NCI-H522 lung, 9.86 µM. Besides, the TGI with RPMI-8226 leukemia and with CCRF-CEM leukemia was more than 100 µM throughout.
Regarding `CCCCNC(=O)NS(=O)(=O)c1ccc(N2N=C(c3cc(C)ccc3C)CC2c2cc(OC)c(OC)c(OC)c2)cc1` (stereo not given), the GI50 is 2.4 µM in the assay on MALME-3M melanoma; 3.69 µM in the assay on ACHN renal; 2.35 µM in the assay with NCI-H23 lung; 2.14 µM in the assay with M14 melanoma; 2.12 µM with SNB-75 CNS; 2.39 µM in the assay on NCI-H522 lung. Also, the GI50 is 1.95 µM with RPMI-8226 leukemia and 2.2 µM in the assay with CCRF-CEM leukemia. For the same molecule, the TGI in the assay with MALME-3M melanoma is 6.83 µM; in the assay on ACHN renal, 12.5 µM; in the assay with NCI-H23 lung, 6.22 µM; in the assay with M14 melanoma, 5.97 µM; with SNB-75 CNS it was 5.83 µM; in the assay on NCI-H522 lung, 7.75 µM. Also, the values for the TGI in the assay with RPMI-8226 leukemia and with CCRF-CEM leukemia were 5.49 µM and 6.12 µM, respectively.
Regarding `CCC(/C=C/c1ccccc1)=N\Nc1ccc(Cl)c(Cl)c1`, the TGI is 78.9 µM in the assay on MALME-3M melanoma; 76.9 µM in the assay on ACHN renal; more than 100 µM in the assay with NCI-H23 lung; more than 100 µM in the assay with M14 melanoma; more than 100 µM in the assay with SNB-75 CNS; 46.1 µM in the assay with NCI-H522 lung. In addition, the TGI with RPMI-8226 leukemia is 50.1 µM; in the assay with CCRF-CEM leukemia, more than 100 µM.
`O=C(COc1cccc(/C=C2\COc3ccc(Cl)cc3C2=O)c1)c1ccc(Cl)cc1`: the GI50 was 17.9 µM in the assay with MALME-3M melanoma; 15.4 µM with ACHN renal; 13.4 µM with NCI-H23 lung; 11.6 µM in the assay with M14 melanoma; 4.73 µM in the assay with SNB-75 CNS; 11.7 µM in the assay with NCI-H522 lung. Besides, the GI50 in the assay with RPMI-8226 leukemia was 2 µM; in the assay with CCRF-CEM leukemia, 4.72 µM. In addition, the TGI in the assay on MALME-3M melanoma was found to be 34.2 µM; in the assay with ACHN renal, 29.4 µM; in the assay on NCI-H23 lung it was 26.4 µM; in the assay on M14 melanoma, 24.4 µM; with SNB-75 CNS, 22.2 µM; in the assay with NCI-H522 lung, 27.2 µM. Besides, the TGI turned out to be 5.14 µM in the assay with RPMI-8226 leukemia and 49 µM in the assay on CCRF-CEM leukemia.
For the molecule `CC(C)c1ccc(Nc2nccc(-c3cnn4ncccc34)n2)cc1`, the GI50 in the assay with MALME-3M melanoma was 1.04 µM; with ACHN renal, 0.189 µM; in the assay on NCI-H23 lung, 0.483 µM; with M14 melanoma it was 0.688 µM; with SNB-75 CNS, 0.484 µM; with NCI-H522 lung, 0.564 µM. The GI50 in the assay on RPMI-8226 leukemia is 0.466 µM; in the assay on CCRF-CEM leukemia, 0.703 µM. The TGI in the assay on MALME-3M melanoma was 4.01 µM; in the assay with ACHN renal, more than 10.3 µM; with NCI-H23 lung, more than 7 µM; in the assay on M14 melanoma, 2.48 µM; in the assay on SNB-75 CNS, 1.17 µM; in the assay on NCI-H522 lung, 3.35 µM. The figures for the TGI in the assay with RPMI-8226 leukemia and in the assay with CCRF-CEM leukemia were 2.56 µM and more than 20.5 µM, respectively.
In the case of `CS(=O)(=O)Nc1ccc(N=Cc2c(O)[nH]c3ccccc23)cc1`, the GI50 in the assay on MALME-3M melanoma, in the assay with ACHN renal, in the assay on NCI-H23 lung, in the assay with M14 melanoma, in the assay with SNB-75 CNS and in the assay with NCI-H522 lung was more than 25 µM throughout. Besides, the GI50 in the assay with RPMI-8226 leukemia is more than 25 µM; with CCRF-CEM leukemia it was more than 20 µM. The TGI in the assay with MALME-3M melanoma, with ACHN renal, in the assay with NCI-H23 lung, in the assay with M14 melanoma, in the assay on SNB-75 CNS and with NCI-H522 lung was more than 25 µM throughout. Further, the TGI with RPMI-8226 leukemia and in the assay with CCRF-CEM leukemia was more than 25 µM throughout.
